“Also recorded” adds a separate entry of the source. Where two headings read alike, the source gives them in different places.
Legend:
[1] = tested on: EFAD formation in RAW264.7 cells; assay: Inhibitor study: EFAD formation in RAW264.7 cells activated with Kdo2 and IFNγ; format: cell-based, murine; details: for Effect of inhibitor on EFAD-1 formation / Effect of inhibitor on EFAD-2 formation / Effect of inhibitor on EFAD-3 formation / Effect of inhibitor on EFAD-4 formation / Effect of inhibitor on EFAD-5 formation / Effect of inhibitor on EFAD-6 formation: RAW264.7 + Kdo2 + IFNγ, ↓ decrease, ↑ increase, NE (not defined in patent)
RAW264.7 cells [2] = assay: Fatty acid supplementation study in activated RAW264.7 cells; format: cell-based, murine; details: 32 μM fatty acid for 3 days, then Kdo2 + IFNγ, 20 h
Procedure: (a) A characteristic BME electrophile adduct fragmentation pattern. showing the major neutral loss of 78 amu (corresponding to the loss of BME) is represented by the enhanced product ion analysis of EFAD-2. (b) RAW264.7 cells were grown for 3 days in DMEM and 10% FBS supplemented with 32 μM of the indicated fatty acid. On the third day cells were activated with Kdo2 (0.5 μg/ml)) and IFNγ (200 U/ml) and EFAD-2 levels were quantified 20 h post activation. (c) Diagram of NaBH4 reduction of oxo-group to an alcohol group. (d) MRM scans monitoring for the mlz transition of 343.2/299.2 (oxo-DPA losing CO2) in RAW264.7 cell lysates purified for EFAD-2, non-treated or treated with NaBH4 (upper and lower panel); MRM scans monitoring for the mlz transition of [345.2/327.2 (hydroxy-DPA/neutral loss of H20) in RAW264.7 cell lysates purified for EFAD-2 and treated with NaBH4. (e) MS/MS fragmentation of EFAD-2 purified from activated RAW 264.7 cells and reduced with NaBH4.
FIG. 16a-16b illustrates that EFAD-1 and -3 are derived from the n-3 series of fatty acids. RAW264.7 cells were grown for 3 days in DMEM and 10% FBS supplemented with 32 μM of the indicated fatty acid. On the third day cells were activated with Kdo2 Lipid A (0.5 μg/ml) and IFNγ (200 U/ml) and EFAD-1 and -3 levels were quantified 20 h post activation.
Similarly, the EFAD of DHA (EFAD-1) and the EFAD of DTA (EFAD-3), were identified as mono-oxygenated derivatives of a 22-carbon fatty acid with a total of six and four double bonds, respectively. To elucidate the precursors in vivo, fatty acid supplementation studies were performed. […] Moreover, as illustrated in FIG. 4 EFAD-2 formation is COX-2 dependent.

[3] = tested on: inducible nitric oxide synthase (iNOS); assay: Nitrite, iNOS and Cox-2 levels in Kdo2+IFNγ-activated RAW264.7 cells; format: cell-based, murine; details: for iNOS induction and accumulation of nitrite in the cell media: RAW264.7
Procedure: FIG. 11a-11e illustrates modulation of anti-oxidant and inflammatory responses by 17-oxoDHA and 17-oxoDPA. RAW264.7 cells were treated with increasing concentration of 17-oxoDHA and 17-oxoDPA. (a) Cells were harvested 1 h after treatment and Nrf2 levels were quantified in nuclear extracts. (b) Cells were harvested 18 h after treatment and HO-1 and Nqo1 (upper band) levels were measured by western blot. (c, d) RAW264.7 cells were treated with increasing concentration of 17-oxoDHA and 17-oxoDPA for 6 h and Kdo2+IFNγ were added. Samples were collected at 12 h. IL-6, MCP-1 and IL-10 levels were measured in the cell media by Quantikine ELISA Kit (R&D Systems) and normalized by the total protein content (c); Nitrite levels were measured in the cell media and normalized by the total protein content and iNOS and Cox-2 levels were measured in total cell lysates (d); (e) PPARγ beta-lactamase reporter assays were performed for Rosiglitazone, 17-OxoDPA, 17-OxoDHA, 15d-PGJ2, 17-hydroxyDHA, DPA, and DHA with concentrations ranging from 0.5-10,000 nM.
For activation experiments RAW 264.7 cells were seeded, incubated overnight, and treated at approximately 80% confluence with the indicated compounds 47. Non-activated controls were treated with vehicle alone. During activation, cells were maintained in an activation medium (SMEM) of Minimum Essential Medium Eagle (Cellgro, 17-305)+2% FBS supplemented with L-glutamine (584 mg/L), Na-pyruvate (110 mg/L) and Hepes (3.57 g/L, pH 7.4). For inhibition studies, inhibitors were added to the medium at the time of activation and MTT assays were used to confirm cell viability. Cells were harvested 20 h post activation (unless otherwise indicated) in 50 mM phosphate buffer (pH 7.4) and snap frozen in liquid N2. THP-1 cells were differentiated with PMA (86 nM) for 16 h, activated with IFNγ (200 U/ml) and Kdo2 lipid A (0.5 μg/ml) in RPMI+2% FBS and harvested 40 h after differentiation. For treatment with EFADs alone, 17-oxoDHA and 17-oxoDPA were added to cell culture media at the indicated concentrations and for the indicated time period. For treatment with EFADs coupled with pro-inflammatory stimulation, addition of 17-oxoDHA and 17-oxoDPA was followed by addition of Kdo2 and IFNγ at 6 h.
Protein concentrations of samples were measured by BCA assay (Pierce). The following primary antibodies were used: Nrf2 (Santa Cruz, sc-722), HO-1 (Assay Design, SPA-896), Nqo1 (Abcam, ab34173), Cox-2 (Santa Cruz, sc-1745), iNOS (BD Transduction Lab, 610332), Lamin B1 (Abcam, ab16048). Actin (detected by Sigma A2066) was used as loading control. […]
Total nitrite and nitrate concentration was measured in cell culture media by Griess reaction using the Nitrate/Nitrite Colorimetric Assay Kit (Cayman Chemical).

RAW264.7 cells [4] = assay: Cytokine levels (IL-6, MCP-1, IL-10) in Kdo2+IFNγ-activated RAW264.7 cells; format: cell-based, murine
rabbit GAPDH = rabbit GAPDH (Oryctolagus cuniculus, UniProt P46406); assay: In vitro reaction of GAPDH with EFAD (mass spectrometry); format: binding; details: Cys244, Cys149, His163, His328
Procedure: FIG. 21a-21h illustrates the mass spectrometric analysis of an in vitro reaction of GAPDH with EFAD-2. Four residues were detected and confined as being targets for EfAD-2 in treated rabbit GAPDH. The peptides were alkylated as Cys244 (a), His163 (b), Cys149 (c) and His328 (d). Upper panels show EFAD-2 modified peptides and lower panels show spectra from corresponding native peptide.
To more specifically test the binding of EFADs to nucleophilic residues in proteins, we tested whether GAPDH was alkylated by EFADs. This enzyme is a well-characterized target for electrophiles and becomes easily inactivated by nitrosylation, oxidation or nucleophilic addition.

[5] = tested on: Nrf2-dependent anti-oxidant response pathway; assay: Nrf2 nuclear accumulation and HO-1/Nqo1 expression (western blot) in RAW264.7 cells; format: cell-based, murine; details: for Nrf2 nuclear accumulation: nuclear extracts, 1 h after treatment; for Expression of HO-1 and Nqo1: western blot, 18 h after treatment
[6] = Mus musculus, RAW264.7, genistein 25 μM, MAFP 25 μM, ibuprofen 100 μM, 20 h, read-out: Inhibition of EFAD production
[7] = MK886 500 nM, ETYA 25 μM, OKA 50 nM, indomethacin 25 μM, diclofenac 1 μM, NS-398 4 μM, 20 h

Sequence of rabbit GAPDH (P46406 whole entry): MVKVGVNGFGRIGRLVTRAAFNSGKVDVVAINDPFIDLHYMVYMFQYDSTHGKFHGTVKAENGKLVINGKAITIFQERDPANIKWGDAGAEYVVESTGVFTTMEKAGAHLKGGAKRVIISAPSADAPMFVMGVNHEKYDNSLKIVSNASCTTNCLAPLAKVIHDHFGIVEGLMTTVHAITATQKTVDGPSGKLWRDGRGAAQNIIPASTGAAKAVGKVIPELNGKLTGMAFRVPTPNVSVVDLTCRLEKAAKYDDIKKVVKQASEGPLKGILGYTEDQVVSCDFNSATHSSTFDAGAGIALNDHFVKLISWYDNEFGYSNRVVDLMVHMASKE

SMILES: O=c1c(-c2ccc(O)cc2)coc2cc(O)cc(O)c12 [genistein]
- inhibition at 25 µM [1, 6]: > 50%
- Effect of inhibitor on EFAD-1 formation ([1]; 20 h): ↓
- Effect of inhibitor on EFAD-2 formation ([1]; 20 h): ↓
- Effect of inhibitor on EFAD-3 formation ([1]; 20 h): ↓
- Effect of inhibitor on EFAD-4 formation ([1]; 20 h): ↓
- Effect of inhibitor on EFAD-5 formation ([1]; 20 h): ↓
- Effect of inhibitor on EFAD-6 formation ([1]; 20 h): ↓

SMILES: CCCCCC#CCC#CCC#CCC#CCCCC(=O)O [ETYA, Eicosatetraynoic acid]
- Effect on EFAD formation (in words) [1, 7]: strongly inhibit
- Effect of inhibitor on EFAD-1 formation ([1]; 20 h): ↓
- Effect of inhibitor on EFAD-2 formation ([1]; 20 h): ↓
- Effect of inhibitor on EFAD-3 formation ([1]; 20 h): ↓
- Effect of inhibitor on EFAD-4 formation ([1]; 20 h): ↓
- Effect of inhibitor on EFAD-5 formation ([1]; 20 h): ↓
- Effect of inhibitor on EFAD-6 formation ([1]; 20 h): ↓

SMILES: CC/C=C\C/C=C\C/C=C\C/C=C\C/C=C\CCCC(=O)O [EPA, (5Z,8Z,11Z,14Z,17Z)-eicosa-5,8,11,14,17-pentanoic acid]
- EFAD-2 formation after fatty acid supplementation (RAW264.7 cells [2]): significantly increased

SMILES: C=C1[C@@H](O)[C@@H]2O[C@]3(CC[C@H](/C=C/[C@@H](C)[C@@H]4CC(C)=C[C@@]5(O[C@H](C[C@@](C)(O)C(=O)O)CC[C@H]5O)O4)O3)CC[C@H]2O[C@@H]1[C@@H](O)C[C@H](C)[C@H]1O[C@@]2(CCCCO2)CC[C@H]1C [OKA, okadaic acid]
- Effect on EFAD formation (in words) [1]: slight increase

SMILES: CC/C=C\CC(=O)C=C/C=C\C/C=C\C/C=C\C/C=C\CCC(=O)O [17-oxoDHA, 17-oxo-(4Z,7Z,10Z,13Z,15A,19Z)-docosa-4,7,10,13,15,19-hexanoic acid]
- Reduction of nitrite production ([3]; 20 μM): ~70%
- iNOS induction and accumulation of nitrite in the cell media [3]: dose-dependent inhibition
- IFNγ and LPS-induced cytokine production (RAW264.7 cells [4]): inhibited IFNγ and LPS-induced cytokine production in a dose-dependent manner
- Adduct formation with GAPDH residues (rabbit GAPDH): covalently bind Cys and His residues
- Nrf2 nuclear accumulation [5]: promoted dose-dependent; also recorded: promoting nuclear accumulation of Nrf2
- Expression of HO-1 and Nqo1 [5]: promoted dose-dependent; also recorded: promoting

SMILES: CC/C=C/C/C=C/C/C=C/C/C=C\C/C=C/C/C=C/CCC(=O)O [DHA, (4E,7E,10Z,13E,16E,19E)-docosa-4,7,10,13,16,19-hexanoic acid]
- EFAD-1 formation after fatty acid supplementation (RAW264.7 cells [2]): increased
- EFAD-2 formation after fatty acid supplementation (RAW264.7 cells [2]): did not increase

SMILES: CC/C=C\CC(=O)C=C/C=C\C/C=C\C/C=C\CCCCCC(=O)O [17-oxoDPA, 17-oxo-(7Z,10Z,13Z,15A,19Z)-docosa-7,10,13,15,19-pentanoic acid]
- Reduction of nitrite production ([3]; 25 μM): ~70%
- iNOS induction and accumulation of nitrite in the cell media [3]: dose-dependent inhibition
- IFNγ and LPS-induced cytokine production (RAW264.7 cells [4]): inhibited IFNγ and LPS-induced cytokine production in a dose-dependent manner
- Adduct formation with GAPDH residues (rabbit GAPDH): covalently bind Cys and His residues
- Nrf2 nuclear accumulation [5]: promoted dose-dependent; also recorded: promoting nuclear accumulation of Nrf2
- Expression of HO-1 and Nqo1 [5]: promoted dose-dependent; also recorded: promoting

SMILES: O=C(O)Cc1ccccc1Nc1c(Cl)cccc1Cl [Diclofenac]
- Effect on EFAD formation (in words) [1, 7]: completely abolish
- Effect of inhibitor on EFAD-1 formation ([1]; 20 h): ↓
- Effect of inhibitor on EFAD-2 formation ([1]; 20 h): ↓
- Effect of inhibitor on EFAD-3 formation ([1]; 20 h): ↓
- Effect of inhibitor on EFAD-4 formation ([1]; 20 h): ↓
- Effect of inhibitor on EFAD-5 formation ([1]; 20 h): ↓
- Effect of inhibitor on EFAD-6 formation ([1]; 20 h): ↓

SMILES: COc1ccc2c(c1)c(CC(=O)O)c(C)n2C(=O)c1ccc(Cl)cc1 [Indomethacin]
- Effect on EFAD formation (in words) [1, 7]: completely abolish
- Effect of inhibitor on EFAD-1 formation ([1]; 20 h): ↓
- Effect of inhibitor on EFAD-2 formation ([1]; 20 h): ↓
- Effect of inhibitor on EFAD-3 formation ([1]; 20 h): ↓
- Effect of inhibitor on EFAD-4 formation ([1]; 20 h): ↓
- Effect of inhibitor on EFAD-5 formation ([1]; 20 h): ↓
- Effect of inhibitor on EFAD-6 formation ([1]; 20 h): ↓

SMILES: CC(C)Cc1ccc(C(C)C(=O)O)cc1 (racemic) [Ibuprofen]
- inhibition at 100 µM [1, 6]: > 80%
- Effect of inhibitor on EFAD-1 formation ([1]; 20 h): ↓
- Effect of inhibitor on EFAD-2 formation ([1]; 20 h): ↓
- Effect of inhibitor on EFAD-3 formation ([1]; 20 h): ↓
- Effect of inhibitor on EFAD-4 formation ([1]; 20 h): ↓
- Effect of inhibitor on EFAD-6 formation ([1]; 20 h): ↓
- Effect of inhibitor on EFAD-1 formation ([1]; 20 h, listed as ibuprofen): no significant effect

SMILES: CS(=O)(=O)Nc1ccc([N+](=O)[O-])cc1OC1CCCCC1 [NS-398]
- Effect on EFAD formation (in words) [1, 7]: abolished

SMILES: CC/C=C\C/C=C\C/C=C\CCCCCCCC(=O)O [α-linolenic acid]
- EFAD-2 formation after fatty acid supplementation (RAW264.7 cells [2]): significantly increased

SMILES: CC(C)c1ccc2c(c1)c(SC(C)(C)C)c(CC(C)(C)C(=O)O)n2Cc1ccc(Cl)cc1 [MK886]
- Effect on EFAD formation (in words) [1, 7]: no significant effect
